Assay results as given in BindingDB's records for doi:10.1016/s0960-894x(99)00632-0 (3-Dimensional Pharmaceuticals, 2000).

Experiment: Compound was evaluated for the inhibitory constant against human Serine protease chymotrypsin

Compound: Cc1cc(OCCC=NNC(=N)N)cc(OS(=O)(=O)c2ccccc2OC(F)(F)F)c1 [3-[((3E)-3-{[(E)-amino(imino)methyl]hydrazono}propyl)oxy]-5-methylphenyl 2-(trifluoromethoxy)benzenesulfonate]
- Ki: 88 µM
